Data: US10029984B2, “Mono- or di-substituted indole derivatives as dengue viral replication inhibitors” (Janssen Pharmaceuticals, Inc., priority 2015, dated 2018)

Columns and labels:
DENV-2 16681 strain = assay: DENV-2 antiviral assay (eGFP-labeled virus in Vero cells); type: cell-based, Dengue virus; details: DENV-2 16681 eGFP, MOI 0.5, 3 days
Method in brief: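 Vero cells were pre-plated with compound overnight, then infected with eGFP-labeled DENV-2 16681 at MOI 0.5 and incubated 3 days at 37 °C. eGFP fluorescence read by automated microscopy; 9-point 4-fold dilutions (25 μM–0.00038 μM final) in quadruplicate, EC50 by linear interpolation versus virus and cell controls.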

in vitro [1] = type: cell-based; details: African green monkey, CC50
Method in brief: (§1)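 On the same plates after eGFP read-out, resazurin was added and cells incubated a further 5 h at 37 °C, 5% CO2; resorufin fluorescence read with 530 nm excitation. CC50 is the concentration halving resazurin conversion versus cell control; SI = CC50/EC50.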

DENV-1 strain TC974#666 = assay: Tetravalent RT-qPCR assay Protocol A, serotype 1; type: cell-based; details: Dengue virus, DENV1, 72 h; RT-qPCR serotype 1 TC974#666, Vero cells, day 3
Method: (§2) The antiviral activity of the compounds of the invention was tested against DENV-1 strain TC974#666 (NCPV; Table 6), DENV-2 strain 16681 (Table 7), DENV-3 strain H87 (NCPV; Table 8) and DENV-4 strains H241 (NCPV; Table 9) in a RT-qPCR assay. Therefore, Vero cells were infected with either DENV-1, or -2, or -3, or -4 in the presence or absence of test compounds. At day 3 post-infection, the cells were lysed and cell lysates were used to prepare cDNA of both a viral target (the 3′UTR of DENV; table 2) and a cellular reference gene (β-actin, table 2). Subsequently, a duplex real time PCR was performed on a Lightcycler480 instrument. The generated Cp value is inversely proportional to the amount of RNA expression of these targets. Inhibition of DENV replication by a test compound result in a shift of Cp's for the 3′UTR gene. On the other hand, if a test compound is toxic to the cells, a similar effect on β-actin expression will be observed. The comparative ΔΔCp method is used to calculate EC50, which is based on the relative gene expression of the target gene (3′UTR) normalized with the cellular housekeeping gene (β-actin).
(§3) The culture medium consisted of minimal essential medium supplemented with 2% of heat-inactivated fetal calf serum, 0.04% gentamycin (50 mg/mL) and 2 mM of L-glutamine. Vero cells, obtained from ECACC, were suspended in culture medium and 75 μL/well was added in 96-well plates (10000 cells/well), which already contain the antiviral compounds. Typically, these plates contain a 4-fold serial dilution of 9 dilution steps of the test compound at 200 times the final concentration in 100% DMSO (500 nL; final concentration range: 25 μM-0.00038 μM). In addition, each plate contains wells which are assigned as virus controls (containing cells and virus in the absence of compound) and cell controls (containing cells in the absence of virus and compound). Once the cells were added in the plates, the plates were incubated in a fully humidified incubator (37° C., 5% CO2) until the next day. Then, DENV-1 strain TC974#666 at an MOI of 0.6, DENV-2 strain 16681 at an MOI of 0.01, DENV-3 strain H87 at an MOI of 1.0 and DENV-4 strains H241 at an MOI of 0.2 and SG/06K2270DK1/2005 at an MOI of 0.16, were added. Therefore, 25 μL of virus suspension was added to all the wells containing test compound and to the wells assigned as virus control. In parallel, 25 μL of culture medium was added to the cell controls. Next, the plates were incubated for 3 days in a fully humidified incubator (37° C., 5% CO2). After 3 days, the supernatant was removed from the wells and the cells were washed twice with ice-cold PBS (˜100 μL). The cell pellets within the 96-well plates were stored at −80° C. for at least 1 day. Next, RNA was extracted using the Cells-to-CT™ lysis kit, according to the manufacture's guideline (Applied Biosystems). The cell lysates can be stored at −80° C. or immediately used in the reverse transcription step.
(§4) In preparation of the reverse transcription step, mix A (table 3A) was prepared and 7.57 μL/well was dispensed in a 96-well plate. After addition of 5 μL of the cell lysates, a five minute denaturation step at 75° C. was performed (table 3B). Afterwards, 7.43 μL of mix B was added (table 3C) and the reverse transcription step was initiated (table 3D) to generate cDNA.
(§5) Finally, a RT-qPCR mix was prepared, mix C (table 4A), dispensed in 96-well LightCycler qPCR plates to which 3 μL of cDNA was added and the qPCR was performed according to the conditions in table 4B on a LightCycler 480. Using the LightCycler software and an in-house LIMS system, dose response curves for each compound were calculated and the half maximal effective concentration (EC50) and the half maximal cytotoxic concentration (CC50) were determined.

DENV-2 strain 16681 = assay: Tetravalent RT-qPCR assay Protocol A, serotype 2; type: cell-based; details: Dengue virus, DENV2, 72 h; RT-qPCR serotype 2 16681, Vero cells, day 3
Method: as §2, §3, §4, §5

DENV-3 strain H87 = assay: Tetravalent RT-qPCR assay Protocol A, serotype 3; type: cell-based; details: Dengue virus, DENV3, 72 h; RT-qPCR serotype 3 H87, Vero cells, day 3
Method: as §2, §3, §4, §5

DENV-4 strains H241 = assay: Tetravalent RT-qPCR assay Protocol A, serotype 4; type: cell-based; details: Dengue virus, DENV4, 72 h; RT-qPCR serotype 4 H241, Vero cells, day 3
Method: as §2, §3, §4, §5

in vitro [2] = type: cell-based; details: African green monkey, CC50; remark: listed apart in the source
Method: as §2, §3, §5

Vero cells [3] = assay: in vitro; type: cell-based; details: African green monkey
Method in brief: as §1

Vero cells [4] = assay: in vitro; type: cell-based; details: African green monkey, 3 days
Method: as §2, §3, §5

Work on `COc1cc(NC(C(=O)c2c[nH]c3c(C)c(F)ccc23)c2ccc(F)cc2OC)cc(S(C)(=O)=O)c1` (single isomer, unassigned) [Enantiomer 2A, 2-(4-fluoro-2-methoxyphenyl)-1-(6-fluoro-7-methyl-1H-indol-3-yl)-2-((3-methoxy-5-(methylsulfonyl)phenyl)amino)ethanone] yielded an EC50 (DENV-2 16681 strain; listed as 2A*) of 0.77 nM, a CC50 (in vitro [1]) of 6100 nM and an EC50 (DENV-1 strain TC974#666) of 5.85 nM. The EC50 (DENV-2 strain 16681) was 0.856 nM, the EC50 (DENV-3 strain H87) was 58.4 nM and the EC50 (DENV-4 strains H241) was 122 nM. For the same molecule, the CC50 at 3 days (in vitro [2]) was 2920 nM.

Molecule `COc1cc(NC(C(=O)c2c[nH]c3cc(C)c(F)cc23)c2ccc(F)cc2OC)cc(S(C)(=O)=O)c1` (single isomer, unassigned) [Enantiomer 9A, 2-(4-fluoro-2-methoxyphenyl)-1-(5-fluoro-6-methyl-1H-indol-3-yl)-2-((3-methoxy-5-(methylsulfonyl)phenyl)amino)ethanone] has an EC50 (DENV-2 16681 strain; listed as 9A*) of 1.1 nM, a CC50 (Vero cells [3]) of 4800 nM and an EC50 (DENV-1 strain TC974#666) of 10 nM. The EC50 (DENV-2 strain 16681) was 1.14 nM, the EC50 (DENV-3 strain H87) was 104 nM and the EC50 (DENV-4 strains H241) was 241 nM. The CC50 at 3 days (in vitro [2]) was 4040 nM.

Molecule `COc1cc(NC(C(=O)c2c[nH]c3cc(OC)c(F)cc23)c2ccc(F)cc2OC)cc(S(C)(=O)=O)c1` (single isomer, unassigned) [Enantiomer 11A, 2-(4-fluoro-2-methoxyphenyl)-1-(5-fluoro-6-methoxy-1H-indol-3-yl)-2-((3-methoxy-5-(methylsulfonyl)phenyl)amino)ethanone] has an EC50 (DENV-2 16681 strain; listed as 11A*) of 1.1 nM, a CC50 (Vero cells [3]) of 6600 nM and an EC50 (DENV-1 strain TC974#666) of 10.9 nM. For the same molecule, the EC50 (DENV-2 strain 16681) was 1.09 nM, the EC50 (DENV-3 strain H87) was 93 nM and the EC50 (DENV-4 strains H241) was 226 nM. The CC50 at 3 days (in vitro [2]) was 4380 nM.

Molecule `COc1cc(NC(C(=O)c2c[nH]c3c(F)c(F)ccc23)c2ccc(F)cc2OC)cc(S(C)(=O)=O)c1` (single isomer, unassigned) [Enantiomer 13B, 1-(6,7-difluoro-1H-indol-3-yl)-2-(4-fluoro-2-methoxyphenyl)-2-((3-methoxy-5-(methylsulfonyl)phenyl)amino)ethanone] has an EC50 (DENV-2 16681 strain; listed as 13B*) of 1.1 nM, a CC50 (Vero cells [3]) of 6700 nM and an EC50 (DENV-2 strain 16681) of 0.675 nM. It also gave an EC50 (DENV-4 strains H241) of 230 nM, a CC50 at 3 days (in vitro [2]) of 3710 nM and a CC50 (Vero cells [4]) of 2600 nM.

`COc1cc(NC(C(=O)c2c[nH]c3cc(F)c(C)cc23)c2ccc(F)cc2OC)cc(S(C)(=O)=O)c1` (single isomer, unassigned) [Enantiomer 14A, 2-(4-fluoro-2-methoxyphenyl)-1-(6-fluoro-5-methyl-1H-indol-3-yl)-2-((3-methoxy-5-(methylsulfonyl)phenyl)amino)ethanone] showed an EC50 (DENV-2 16681 strain; listed as 14A*) of 0.44 nM, a CC50 (Vero cells [3]) of 3400 nM and an EC50 (DENV-1 strain TC974#666) of 1.4 nM. It also gave an EC50 (DENV-2 strain 16681) of 0.567 nM, an EC50 (DENV-3 strain H87) of 13.1 nM and an EC50 (DENV-4 strains H241) of 69.4 nM. It also gave a CC50 at 3 days (in vitro [2]) of 2420 nM.

Molecule `COc1cc(NC(C(=O)c2c[nH]c3ccc(C)cc23)c2ccc(F)cc2OC)cc(S(C)(=O)=O)c1` (single isomer, unassigned) [Enantiomer 15A, 2-(4-fluoro-2-methoxyphenyl)-2-((3-methoxy-5-(methylsulfonyl)phenyl)amino)-1-(5-methyl-1H-indol-3-yl)ethanone] has an EC50 (DENV-2 16681 strain; listed as 15A*) of 0.8 nM, a CC50 (Vero cells [3]) of 5400 nM and an EC50 (DENV-1 strain TC974#666) of 3.51 nM. It also gave an EC50 (DENV-2 strain 16681) of 1.02 nM, an EC50 (DENV-3 strain H87) of 22.1 nM and an EC50 (DENV-4 strains H241) of 91 nM. It also gave a CC50 at 3 days (in vitro [2]) of over 2500 nM.

Work on `COc1cc(NC(C(=O)c2c[nH]c3cc(OC)c(Cl)cc23)c2ccc(F)cc2OC)cc(S(C)(=O)=O)c1` (single isomer, unassigned) [Enantiomer 16A, 1-(5-chloro-6-methoxy-1H-indol-3-yl)-2-(4-fluoro-2-methoxyphenyl)-2-((3-methoxy-5-(methylsulfonyl)phenyl)amino)ethanone] yielded an EC50 (DENV-2 16681 strain; listed as 16A*) of 0.42 nM, a CC50 (Vero cells [3]) of 3700 nM and an EC50 (DENV-1 strain TC974#666) of 3.26 nM. It also gave an EC50 (DENV-2 strain 16681) of 0.188 nM, an EC50 (DENV-3 strain H87) of 25.4 nM and an EC50 (DENV-4 strains H241) of 80.1 nM. For the same molecule, the CC50 at 3 days (in vitro [2]) was 3170 nM.

Molecule `COc1cc(NC(C(=O)c2c[nH]c3ccc(C(F)(F)F)cc23)c2ccc(F)cc2OC)cc(S(C)(=O)=O)c1` (single isomer, unassigned) [Enantiomer 17B, 2-(4-fluoro-2-methoxyphenyl)-2-((3-methoxy-5-(methylsulfonyl)phenyl)amino)-1-(5-(trifluoromethyl)-1H-indol-3-yl)ethanone] has an EC50 (DENV-2 16681 strain; listed as 17B*) of 0.2 nM, a CC50 (Vero cells [3]) of 3600 nM and an EC50 (DENV-1 strain TC974#666) of 0.478 nM. It also gave an EC50 (DENV-2 strain 16681) of 0.0921 nM, an EC50 (DENV-3 strain H87) of 7.28 nM and an EC50 (DENV-4 strains H241) of 21.3 nM. For the same molecule, the CC50 at 3 days (in vitro [2]) was 1610 nM.

Molecule `COc1cc(NC(C(=O)c2c[nH]c3ccc(OC(F)(F)F)cc23)c2ccc(F)cc2OC)cc(S(C)(=O)=O)c1` (single isomer, unassigned) [Enantiomer 18A, 2-(4-fluoro-2-methoxyphenyl)-2-((3-methoxy-5-(methylsulfonyl)phenyl)amino)-1-(5-(trifluoromethoxy)-1H-indol-3-yl)ethanone] has an EC50 (DENV-2 16681 strain; listed as 18A*) of 0.086 nM, a CC50 (Vero cells [3]) of 3100 nM and an EC50 (DENV-1 strain TC974#666) of 0.357 nM. It also gave an EC50 (DENV-2 strain 16681) of 0.14 nM, an EC50 (DENV-3 strain H87) of 7.54 nM and an EC50 (DENV-4 strains H241) of 18.2 nM. It also gave a CC50 at 3 days (in vitro [2]) of 3010 nM.
